# Data: PubChem BioAssay (NCI)
# Where “and” joins values, the source holds several entries; their conditions need not be identical. Equal values may be shown once.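 Step 1: Grow cells in 96-well plates. Step 2: Expose to compound for 48 hours at 5 concentrations. Step 3: Interpolate endpoints linearly; if unreached, use highest concentration. Abbreviation: GI50, concentration required for 50% inhibition of growth. TGI: concentration producing complete growth inhibition.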
# Columns and labels:
# Assay in all cases: inhibition of tumour cell growth, NCI panel, 48 h
# [1] = test system: ACHN renal
# [2] = test system: K-562 leukemia
# [3] = test system: MDA-MB-435
# [4] = test system: NCI-H522 lung
# [5] = test system: OVCAR-5 ovarian
# [6] = test system: RPMI-8226 leukemia
# [7] = test system: SF-295 CNS
# [8] = test system: SN12C renal
# [9] = test system: TK-10 renal
# [10] = test system: UACC-257 melanoma
Structure (SMILES),GI50 [1] [µM],TGI [1] [µM],GI50 [2] [µM],TGI [2],GI50 [3] [µM],TGI [3] [µM],TGI [4],GI50 [5] [µM],TGI [5],GI50 [6] [µM],TGI [6],TGI [7] [µM],TGI [8],TGI [9] [µM],TGI [10],GI50 [4] [µM],GI50 [7] [µM],GI50 [8] [µM],GI50 [9] [µM],GI50 [10] [µM]
O=c1c(-c2ccc(O)cc2)coc2cc(OC3OC(CO)C(O)C(O)C3O)cc(O)c12 (stereo not given),> 10,> 100,> 100,> 100 µM,> 100,> 100,> 100 µM,> 100,> 100 µM,> 10,> 100 µM,> 100,> 100 µM,> 100,> 100 µM,,,,,
CCOC(=O)c1csc(NC(=O)COc2cccc(/C=C3\CSc4ccccc4C3=O)c2)n1,2.64,8.99,> 100,> 100 µM,2.05,5.06,1.49 µM,1.04,5.42 µM,> 100,> 100 µM,2.44,6.58 µM,9.62,16.7 µM,0.581,0.908,1.38,2.11,5.72
COc1cc(/C=C\c2cc(/C=C\c3ccc(O)c(OC)c3)n(C(=O)CNc3ccc(Cl)cc3)n2)ccc1O,0.628,14.9,2.59,12.3 µM,2.52,23.4,5.06 µM,2.78,25.4 µM,1.88,6.36 µM,20.1,20.6 µM,18.8,17.7 µM,1.51,6.07,3.18,5.52,5.17
CCOc1c(C#N)c2c(N)ncnc2n1C1OC(CO)C(O)C1O (stereo not given),2.95,> 100,1.5,16.4 µM,3.15,34.6,39.9 µM,7.02,> 100 µM,2.12,9 µM,> 100,> 100 µM,> 28,> 77.3 µM,8.18,4.63,3.14,3.05,13.7
C1CCN2CC3CCCN4CCCC(C2C1)C34 (stereo not given),,> 100,,> 100 µM,,> 100,> 100 µM,,> 100 µM,,> 100 µM,> 100,> 100 µM,> 100,> 100 µM,,,,,
CC(C)CCC(=O)[C@@H](C)[C@H]1[C@@H](OC2OCC(O)C(O)C2NS(C)(=O)=O)C[C@H]2[C@@H]3CC=C4C[C@@H](O)CC[C@]4(C)[C@H]3CC[C@]12C (stereo not given in full),2.15,11.6,1.37,5.55 µM,0.88,2.16,12.5 µM,4.89,16.8 µM,0.12,0.419 µM,0.595,> 40 µM,23.5,2.31 µM,5.05,0.141,8.36,6.63,0.922
COC(=O)C(=O)C(C(=O)C(=O)Nc1ccc(C)cc1)c1nc2ccc(C(=O)c3ccccc3)cc2[nH]c1=O (stereo not given),,> 100,,> 100 µM,,> 100,> 100 µM,,> 100 µM,,> 100 µM,> 100,> 100 µM,> 100,> 100 µM,,,,,
COc1ccc(/C=C\c2cc(OC)c(OC)c(OC)c2)c(O)c1O,,57.7,0.333,13.2 µM and 37.1 µM,,0.0163,0.262 µM and 0.823 µM,43.7,51.8 µM and 96.4 µM,0.0635,20.9 µM and 9.14 µM,,25.9 µM and 28.4 µM,55.8,28.7 µM and 52.3 µM,,0.0286,0.296,,0.142
CC1=NN(C(=O)c2ccncc2)C(=O)C1N=Nc1ccc2ccccc2c1 (stereo not given),,> 100,,> 70.7 µM,,15.2,> 100 µM,,> 100 µM,,> 100 µM,> 100,> 100 µM,> 100,> 100 µM,,,,,
Cc1nnc(-c2ccc(C)c(-c3ccc(C(=O)NCc4ccc(Cl)cc4)cc3)c2)o1,12.4,> 25,7.64,> 25 µM,7.15,> 25,> 25 µM,> 25,> 25 µM,10.2,> 25 µM,> 25,> 25 µM,> 25,> 25 µM,8.49,7.16,> 18,> 15.7,8.07
CC(=O)O[C@H]1C(=O)[C@@]2(C)[C@H]([C@H](OC(=O)c3ccccc3)[C@@]3(O)C[C@H](O)C(C)=C1C3(C)C)[C@]1(OC(C)=O)CO[C@@H]1C[C@@H]2O,,> 100,,> 100 µM,,27.5,44.1 µM,,> 100 µM,,> 100 µM,> 100,> 100 µM,> 100,> 100 µM,,,,,
NNC(=S)Nc1cccc(Cl)c1,,> 100,,> 100 µM,,> 100,> 100 µM,,> 100 µM,,> 100 µM,> 100,> 100 µM,> 100,> 100 µM,,,,,
O=S(=O)(Nc1ccc2ccccc2c1)c1ccc(-c2cnc(C3CC3)o2)cc1,2.61,42.8,0.394,> 100 µM,0.214,0.598,14.5 µM,3.01,23.4 µM,3.18,24.8 µM,5.46,17.3 µM,> 100,31.5 µM,0.766,0.452,3.69,5.81,10.4
CN1CCN(Cc2ccc(NC(=O)c3cncc(C#Cc4cnn5ccccc45)c3)cc2C(F)(F)F)CC1,0.873,3.72,0.005,3.16 µM,0.729,1.7,2.27 µM,1.12,5.09 µM,0.57,1.82 µM,3.35,3.85 µM,4.13,3 µM,0.838,0.916,0.825,1.61,1.15
